According to patent US12089595B2, “Pseudomonas strains and their metabolites to control plant diseases” (T3 Bioscience, Inc., priority 2020, dated 2024):
Entries after “also recorded” stand apart in the source; their conditions may differ. Like-named read-outs stand apart in the source and are kept apart here.

Tests used:
[1] = system: C. michiganensis subsp. Michiganensis Cmm382; assay: Agar plate diffusion assay; assay type: cell-based, Clavibacter michiganensis subsp. michiganensis; conditions: Clavibacter michiganensis, read-out: Diameter of the zone of inhibition
[2] = system: C. michiganensis subsp. Michiganensis Cmm0317; assay: Agar plate diffusion assay; assay type: cell-based, Clavibacter michiganensis subsp. michiganensis; conditions: Clavibacter michiganensis, read-out: Diameter of the zone of inhibition
[3] = system: C. michiganensis subsp. Michiganensis Cmm0690; assay: Agar plate diffusion assay; assay type: cell-based, Clavibacter michiganensis subsp. michiganensis; conditions: Clavibacter michiganensis, read-out: Diameter of the zone of inhibition
[4] = system: X. arboricola pv. Juglandis Xaj417; assay: microbe, parasite or virus in culture; assay type: cell-based, Xanthomonas arboricola pv. Juglandis; conditions: Xanthomonas arboricola, read-out: Diameter of the zone of inhibition
[5] = system: R. solanacearum Pss; assay: microbe, parasite or virus in culture; assay type: cell-based; conditions: Ralstonia solanacearum, read-out: Diameter of the zone of inhibition
[6] = Solubility in solvents; assay type: physicochemical
Procedure: Preparative HPLC (Prep-HPLC) purification of the fraction 3840 and 5054 lead to the discovery of 15 mg yellow colored compound RejuAgro A (Rt17.5) and 103.3 mg dark-green colored compound RejuAgro B, respectively. […] The structures of the two compounds have been investigated by High resolution mass spectrometry (HR-MS), infrared (IR), Ultraviolet (UV), 1D and 2D Nuclear magnetic resonance (NMR) as well as X-ray crystal structure analysis.

[7] = system: X. arboricola pv. Juglandis Xaj219; assay: microbe, parasite or virus in culture; assay type: cell-based, Xanthomonas arboricola pv. Juglandis; conditions: Xanthomonas arboricola, read-out: Diameter of the zone of inhibition
[8] = system: E. amylovora; assay: Plate diffusion assay in LB plates; assay type: cell-based, Erwinia amylovora
Text: Two assays were used for the antimicrobial test of 0617-T307 cell broth and metabolites. One is plate diffusion assay and the other one is microplate assay. LB plate was used for the plate diffusion assay of the antimicrobial activity of RejuAgro A containing fractions and cell broths against E. amylovora (Table 3).

[9] = system: R. solanacearum K60; assay: microbe, parasite or virus in culture; assay type: cell-based; conditions: Ralstonia solanacearum, K60, read-out: Diameter of the zone of inhibition
[10] = system: Venturia inaequalis; assay: Antifungal assay on amended PDA plates; assay type: cell-based; conditions: 200-1000 μg/mL in PDA plate; day 14 (figure)
Procedure: The fungus Venturia inaqualis that causes apple scab was maintained on PDA agar in the dark at room temperature (˜24° C.). A mixture of conidia and mycelia suspension (in 0.01 M PBS) was harvested from PDA (Potato dextrose agar). Ten μL the conidia and mycelia suspension were dropped onto biocontrol bacteria, RejuAgro A, or RejuAgro A amended plates. The control was PDA plates without the addition of the biocontrol bacteria or RejuAgro A or B. […]

[11] = system: Erwinia amylovora 273; assay: In vitro plate assay of flash fractions; assay type: cell-based; conditions: E. amylovora 273 on 50% LB plate, 2 μL DMSO solution, one day
Procedure: The generated fractions were applied for the subsequent plate assays. One mL of each fraction was picked up into a 1.5 mL test tube and vacuum dried by an Eppendorf vacuum concentrator. The dried sample was dissolved in 50 μL DMSO, of which 2 μL was used in the plate assay. Briefly, Erwinia amylovora 273 was streaked onto LB plate to grow at 28° C. incubator and single colony obtained after 24 h was inoculated into 5 mL LB media to allow an overnight growth at 28° C. shaker at 200 rpm. The bacteria were diluted 1:100 in sterile water, of which 225 μL was plated onto 50% LB plate (Tryptone, 5.0 g/L; Yeast extract, 2.5 g/L; NaCl, 5.0 g/L, Agar, 15 g/L). After dried in the biosafety cabinet for 10 mins, the DMSO solution of each fraction was then distributed to its pre-labeled section of the petri dish and allowed to dry for another 10 min. Along with the assay, DMSO and Kasugamycin were used as negative and positive controls, respectively. The plates were then incubated at 28° C. incubator and the inhibitory zone was checked one day later.
The generated fractions were applied for the subsequent plate assays. One mL of each fractions was picked up into a 1.5 mL test tube and vacuum dried by an Eppendorf vacuum concentrator. The dried sample was dissolved in 50 μL DMSO, of which 2 μL was used in the plate assay. […]

[12] = system: Xanthomonas axonopodis pv. citri N40-SO5; assay: Agar plate spot assay (inhibitory zone); assay type: cell-based; conditions: Xac N40-SO5, NA
[13] = system: Ralstonia solanacearum K60; assay type: cell-based; conditions: LB
[14] = system: Pectobacterium atrosepticum 942; assay: Agar plate spot assay (inhibitory zone); assay type: cell-based; conditions: LB
Text: (§1) The HPLC isolation and purification of the ethyl acetate extracts of acidified cell broth of Pseudomonas sp. 0617-T307 identified two antimicrobial compounds (Rt22.9 and Rt25.0) from flash fraction T5058 and one antimicrobial compound (Rt18.9) from flash fraction T7882. Two μL of DMSO, Rt18.9, Rt22.9 or Rt25.0 were spotted on agar plates respectively grown with different bacterial strains and the inhibitory zone was further examined (Table 8).

[15] = system: Xanthomonas arboricola pv. Juglandis 417; assay: Agar plate spot assay (inhibitory zone); assay type: cell-based; conditions: X. arboricola pv. Juglandis 417, NA
Text: as §1

[16] = system: Pectobacterium carotovorum subsp. brasiliensis 944; assay: Agar plate spot assay (inhibitory zone); assay type: cell-based; conditions: P. carotovorum subsp. brasiliensis 944, LB
Text: as §1

[17] = system: Erwinia amylovora 1189; assay: Agar plate spot assay (inhibitory zone); assay type: cell-based; conditions: LB
Text: as §1

[18] = system: Pseudomonas syringae pv syringae 7046; assay: Agar plate spot assay (inhibitory zone); assay type: cell-based; conditions: P. syringae pv syringae 7046, LB
Text: as §1

[19] = system: Pseudomonas syringae pv. lachrymans 1188-1; assay: Agar plate spot assay (inhibitory zone); assay type: cell-based; conditions: P. syringae pv. lachrymans 1188-1, LB
Text: as §1

[20] = system: Pseudomonas syringae pv. tomato PT30; assay: Agar plate spot assay (inhibitory zone); assay type: cell-based; conditions: P. syringae pv. tomato PT30, LB
Text: as §1

[21] = system: Xanthomonas arboricola pv. Juglandis 219; assay: Agar plate spot assay (inhibitory zone); assay type: cell-based; conditions: X. arboricola pv. Juglandis 219, NA
Text: as §1

[22] = system: Pectobacterium parmentieri UPP163 936; assay: Agar plate spot assay (inhibitory zone); assay type: cell-based; conditions: LB
Text: as §1

[23] = system: Pseudomonas savastanoi pv. savastanoi 01-26; assay: Agar plate spot assay (inhibitory zone); assay type: cell-based; conditions: P. savastanoi pv. savastanoi 01-26, LB
Text: as §1

[24] = system: Xanthomonas axonopodis pv. citri-Miami XC2002-00010; assay: Agar plate spot assay (inhibitory zone); assay type: cell-based; conditions: Xac-Miami XC2002-00010, NA
[25] = system: Clavibacter michiganensis subsp. michiganensis Cmm 0317; assay: Agar plate spot assay (inhibitory zone); assay type: cell-based; conditions: LB, 2 to 5 days

CN[C@H](CC(C)C)C(=O)N[C@H]1C(=O)N[C@@H](CC(N)=O)C(=O)N[C@H]2C(=O)N[C@H]3C(=O)N[C@H](C(=O)N[C@H](C(=O)O)c4cc(O)cc(O)c4-c4cc3ccc4O)[C@H](O)c3ccc(c(Cl)c3)Oc3cc2cc(c3O[C@@H]2O[C@H](CO)[C@@H](O)[C@H](O)[C@H]2O[C@H]2C[C@](C)(N)[C@H](O)[C@H](C)O2)Oc2ccc(cc2Cl)[C@H]1O [Vancomycin]
30 mm: zone of inhibition at 5000 µg/mL [1] | zone of inhibition at 5000 µg/mL [2] | zone of inhibition at 5000 µg/mL [3]

CC1=C(C2=C(C)C(=O)C(=O)NC2=O)C(=O)NC(=O)C1=O [RejuAgro B]
0 mm: zone of inhibition at 2000 µg/mL [4] | zone of inhibition at 2000 µg/mL [7] | zone of inhibition at 2000 µg/mL ([8]; Erwinia amylovora, 2 mg/mL, read-out: Diameter of the Inhibitory zone)
can be dissolved very well: solubility in dimethyl sulfoxide (DMSO) ([6]; DMSO)
4 mm: zone of inhibition at 2000 µg/mL [5] | zone of inhibition at 2000 µg/mL [9]
does not dissolve well: solubility in methanol and chloroform ([6]; methanol, chloroform)

O=S(=O)([O-])[O-].[Cu+2] [copper sulfate, reference compound]
no inhibition; also recorded: can grow: growth of V. inaequalis on PDA plates [10]

C[C@H]1O[C@H](O[C@H]2[C@H](O)[C@@H](O)[C@@H](O)[C@H](O)[C@@H]2O)[C@@H](N)C[C@@H]1NC(=N)C(=O)O [Kasugamycin, reference compound]
1.3 cm: Diameter of the Inhibitory zone ([8]; concentration not given)
did show a zone of inhibition: inhibitory zone / zone of clearance [11]

CC(C)CC(=O)NC(Cc1c[nH]c2ccccc12)C(=O)O (centres unmarked) [Rt22.9]
No: Inhibitory zone (Yes/No) ([12]; 10 mg/mL) | Inhibitory zone (Yes/No) ([14]; 10 mg/mL) | Inhibitory zone (Yes/No) ([15]; 10 mg/mL) | Inhibitory zone (Yes/No) ([16]; 10 mg/mL) | Inhibitory zone (Yes/No) ([17]; 10 mg/mL) | Inhibitory zone (Yes/No) ([21]; 10 mg/mL) | Inhibitory zone (Yes/No) ([22]; 10 mg/mL) | Inhibitory zone (Yes/No) ([24]; 10 mg/mL)
Yes: Inhibitory zone (Yes/No) ([13]; 10 mg/mL) | Inhibitory zone (Yes/No) ([18]; 10 mg/mL) | Inhibitory zone (Yes/No) ([19]; 10 mg/mL) | Inhibitory zone (Yes/No) ([20]; 10 mg/mL) | Inhibitory zone (Yes/No) ([23]; 10 mg/mL) | Inhibitory zone (Yes/No) ([25]; 2 μL of 10 mg/mL spotted)

CCCCCC(=O)NC(Cc1c[nH]c2ccccc12)C(=O)O (centres unmarked) [Rt25.0]
No: Inhibitory zone (Yes/No) ([14]; 5 mg/mL) | Inhibitory zone (Yes/No) ([15]; 5 mg/mL) | Inhibitory zone (Yes/No) ([17]; 5 mg/mL) | Inhibitory zone (Yes/No) ([22]; 5 mg/mL)
Yes: Inhibitory zone (Yes/No) ([12]; 5 mg/mL) | Inhibitory zone (Yes/No) ([13]; 5 mg/mL) | Inhibitory zone (Yes/No) ([16]; 5 mg/mL) | Inhibitory zone (Yes/No) ([18]; 5 mg/mL) | Inhibitory zone (Yes/No) ([19]; 5 mg/mL) | Inhibitory zone (Yes/No) ([20]; 5 mg/mL) | Inhibitory zone (Yes/No) ([21]; 5 mg/mL) | Inhibitory zone (Yes/No) ([23]; 5 mg/mL) | Inhibitory zone (Yes/No) ([24]; 5 mg/mL) | Inhibitory zone (Yes/No) ([25]; 2 μL of 5 mg/mL spotted)
